Like-named read-outs stand apart in the source and are kept apart here.
Experiments:
[1] = system: HBV; experiment: Anti-HBV antiviral assay: extracellular HBV virion DNA by Southern blot in HepG 2.2.15 cultures; assay type: cell-based, hepatitis B virus
Procedure: Confluent cultures of chronic HBV producing cell line HepG 2.2.15 in 96-well tissue culture plates in RPMI 1640 medium with 2% fetal bovine serum were used for the antiviral analysis of castanospermine esters (see Korba and Gerin, Antivir. Res. 19:55-70, 1992).
Extracellular HBV nucleic acid levels were measured 24 hours after the last treatment by Southern blot hybridization (quantified via densitometry using equipment and methods known in the art) as a measure of the number of HBV virions produced.
Based on the hybridization analysis, about 1.0 pg extracellular HBV DNA/ml of culture medium is roughly equivalent to about 3×10^5 viral particles/ml. Values ±standard deviations (SD) were calculated by linear regression analysis using data combined from all treated cultures. SDs were calculated using the standard error of regression generated from the linear regression analyses.

[2] = system: HepG 2.2.15; experiment: Cytotoxicity, neutral red dye uptake; settings: for Cytotoxicity - Neutral Red Dye Uptake: 24 hours after final treatment
Procedure: (§1) Cytotoxicity analyses were also performed in order to assess whether any observed antiviral effects were due to a general effect on cell viability. This analysis was performed on 96-well plates seeded at the same time and with the identical pool of stock cells used for the antiviral assay described in Example 1. […] Cellular uptake of neutral red dye was used to determine the relative level of toxicity 24 hours after the final treatment. A cell that is viable will take up the neutral red dye, while a dead cell will not. The absorbance of internalized dye at 510 nm (A510) was used for quantitative analysis. Values are presented as a percentage of the average A510 values (±standard deviation, SD) in 9 separate cultures of untreated cells on the same plate.
(§2) The EC90 and CC50 values were used to calculate a Selectivity Index (SI, CC50/EC90) because at least a […] reduction in HBV levels is considered as having achieved statistical significance in this assay (see Korba & Gerin, Antiviral Res. 19:55-70,1992).

[3] = Cytotoxicity, neutral red dye uptake; settings: human
Procedure: as §1, §2

[4] = Hepatitis B virus, HepG2.2.15, Table 5, monotherapy, or celgosivir concentration in combination with ADV

SMILES: CCCC(=O)O[C@H]1CN2CC[C@H](O)[C@@H]2[C@@H](O)[C@@H]1O [Celgosivir, [1S-(1α,6β,7α,8β,8aβ)]-octahydro-1,6,7,8-indolizinetetrol 6-butanoate]
- HBV Virion DNA Levels ([1]; 15 μM (first panel), 9 daily doses, untreated cells 121 pg/mL): 113 ± 9 pg/mL culture medium
- HBV Virion DNA Levels ([1]; 15 μM celgosivir (third panel; combinations plus ADV at the molar ratio)): 111 ± 8 pg/mL culture medium
- HBV Virion DNA Levels ([1]; 50 μM (first panel), 9 daily doses, untreated cells 121 pg/mL): 56 ± 4 pg/mL culture medium
- HBV Virion DNA Levels ([1]; 50 μM celgosivir (third panel; combinations plus ADV at the molar ratio), assay sensitivity 0.1 pg/mL): 53 ± 6 pg/mL culture medium
- HBV Virion DNA Levels ([1]; 150 μM (first panel), 9 daily doses, untreated cells 121 pg/mL): 17 ± 2 pg/mL culture medium
- HBV Virion DNA Levels ([1]; 150 μM celgosivir (third panel; combinations plus ADV at the molar ratio), assay sensitivity 0.1 pg/mL): 16 ± 2 pg/mL culture medium
- HBV Virion DNA Levels ([1]; 300 μM, 9 daily doses, extracellular, 24 hours after last treatment, untreated cells 121 pg/mL): 8 ± 1 pg/mL culture medium
- EC50 ([1]; Table 3, concentration giving 2-fold reduction in HBV DNA vs untreated cultures, read-out: EC50): 28 ± 1.4 µM
- EC90 ([1]; Table 3, concentration giving 10-fold reduction in HBV DNA vs untreated cultures, read-out: EC90): 158 ± 22 µM
- EC50 ([1]; Table 5, monotherapy, or celgosivir concentration in combination with ADV, read-out: EC50): 24 ± 1.2 µM
- EC90 ([1]; Table 5, monotherapy, or celgosivir concentration in combination with ADV, read-out: EC90): 147 ± 15 µM
- HBV virion production by the 2.2.15 cells, in words ([1]; summary of Tables 2 and 3): caused a reduction in HBV virion production
- CC50 ([2]; Table 5, 2-fold reduction in neutral red dye uptake, value for the drug named, >1000 = highest concentration tested): > 1000 µM

SMILES: CC(C)(C)C(=O)OCOP(=O)(COCCn1cnc2c(N)ncnc21)OCOC(=O)C(C)(C)C [ADV, adefovir dipivoxil]
- HBV Virion DNA Levels ([1]; 0.3 μM ADV, untreated cells 121 pg/mL): 121 ± 13 pg/mL culture medium
- HBV Virion DNA Levels ([1]; 1.0 μM ADV, untreated cells 121 pg/mL): 55 ± 4 pg/mL culture medium
- HBV Virion DNA Levels ([1]; 3.0 μM ADV, untreated cells 121 pg/mL): 11 ± 2 pg/mL culture medium
- HBV Virion DNA Levels ([1]; 10 μM ADV, untreated cells 121 pg/mL): 3 ± 1 pg/mL culture medium
- EC50 ([1]; Hepatitis B virus, HepG2.2.15, Table 3, concentration giving 2-fold reduction in HBV DNA vs untreated cultures, read-out: EC50): 0.95 ± 0.105 µM
- EC90 ([1]; Hepatitis B virus, HepG2.2.15, Table 3, concentration giving 10-fold reduction in HBV DNA vs untreated cultures, read-out: EC90): 2.8 ± 0.1 µM
- EC50 ([1]; Hepatitis B virus, HepG2.2.15, Table 5, monotherapy, or celgosivir concentration in combination with ADV, read-out: EC50): 1 ± 0.1 µM
- EC90 ([1]; Hepatitis B virus, HepG2.2.15, Table 5, monotherapy, or celgosivir concentration in combination with ADV, read-out: EC90): 3 ± 0.1 µM
- Cytotoxicity - Neutral Red Dye Uptake ([2]; 30 μM (combinations: dose of celgosivir)): 100% ± 2 % of Control
- Cytotoxicity - Neutral Red Dye Uptake ([2]; 100 μM (combinations: dose of celgosivir)): 98% ± 1 % of Control
- Cytotoxicity - Neutral Red Dye Uptake ([2]; 300 μM (combinations: dose of celgosivir)): 73% ± 2 % of Control
- Cytotoxicity - Neutral Red Dye Uptake ([2]; 1000 μM (combinations: dose of celgosivir)): 10% ± 1 % of Control
- CC50 [3]: 468 ± 17 µM

SMILES: Nc1ccn([C@@H]2CS[C@H](CO)O2)c(=O)n1 [Compound 3TC, (−)2′,3′-dideoxy, 3′-thiacytidine]
- EC50 ([1]; Hepatitis B virus, HepG2.2.15, Table 3, concentration giving 2-fold reduction in HBV DNA vs untreated cultures): 0.058 ± 0.004 µM
- EC90 ([1]; Hepatitis B virus, HepG2.2.15, Table 3, concentration giving 10-fold reduction in HBV DNA vs untreated cultures): 0.177 ± 0.015 µM
- EC50 [1, 4]: 0.058 ± 0.004 µM
- EC90 [1, 4]: 0.177 ± 0.015 µM
- Selectivity Index (CC50/EC90) ([1]; Table 5, monotherapy, or celgosivir in combination with ADV): 11,709
- CC50 [3]: 2340 ± 89 µM

Reference: US20060052414A1, “Compositions and methods for treating or preventing Hepadnaviridae infection” (priority 2004, published 2006)
